The text below walks through data of PubChem BioAssay AID2305 (GlaxoSmithKline (GSK), 2010).

This assay relates to P. falciparum 3D7 growth, pLDH absorbance. Briefly: P. falciparum 3D7 growth inhibition, dose response, strain 3D7 (AID 2305).

For the compound `CCc1cn(CCCOC)c2ccc(C(=O)N[C@@H](Cc3ccccc3)[C@H](O)CNCc3cccc(C(F)(F)F)c3)cc12`, the 50% inhibitory concentration (IC50) was 190 nM. With `COc1ccc(-c2ccc(NC(=O)c3ccc(C#N)cc3)c(F)c2)cc1CN(C)CCN(C)C` the figure was 970 nM.

`CCCCOc1ccc(N2C(N)=NC(N)=NC2(C)C)cc1` yielded a concentration for half-maximal inhibition (IC50) of 210 nM. The compound `CN(Cc1ccccc1)C1CCN(c2cc(NC(=O)c3cccc(F)c3)ccn2)CC1` had an IC50 of 1510 nM.

As for `Oc1ccc2[nH]cc(C3CCN(CCCNCc4ccc(-c5ccccc5)cc4)CC3)c2c1`, the IC50 was found to be 720 nM. In the case of `COc1ccc(-c2cc(C(=O)N[C@@H](CC3CCCCC3)C(=O)NCCN3CCCCC3)ccc2O)cc1` it was 950 nM. With `COc1ccc2nccc([C@@H](O)CN3CCC(NC(=O)C(c4cc5ccccc5o4)N4CCN(c5ccc(F)cc5)CC4)CC3)c2c1` (stereo partly drawn) the figure was 200 nM. In the case of `COc1ccc(CN2CCC(N3CC(c4ccccc4)(c4ccccc4)OCC3=O)C2)c(O)c1` (stereo not drawn) it was 930 nM. Regarding `CCC(=O)c1cc(C(=O)NCCc2cccc(OC)c2)ccc1OC`, the IC50 was determined as 900 nM. With `Cc1[nH]c2c(c(=O)c1Cl)-c1ccc(Oc3cccc(C(F)(F)F)c3)cc1C2=O` the figure was 40 nM; with `COc1cc(NC(=O)c2ccc(-c3ccccc3)cc2)ccc1OCCCN1CCC(c2ccccc2)CC1`, 750 nM. For `CCCCOC(=O)[C@H](CCC)NC(=O)c1ccc(NS(=O)(=O)c2ccc3nc(N)[nH]c(=O)c3c2)cc1`, the concentration for half-maximal inhibition (IC50) came out at 200 nM. In the case of `O=C(Nc1cc(=O)[nH]c2nc(-c3ccccc3)nn12)C1CCCCC1` it was 420 nM; in that of `Oc1ccc(Cc2ccccc2)cc1CNC1CCCCC1`, 190 nM. Compound `Cc1cc(N2CCC(NS(=O)(=O)c3ccccc3)CC2)nc(Nc2cccc(C#N)c2)n1` gave a concentration for half-maximal inhibition (IC50) of 1350 nM.

`Cc1cccc2[nH]c(-c3cccc(-c4ccc(NC(=O)Nc5cccc(C#N)c5)cc4)c3)nc12` had an IC50 of 190 nM.

In turn, `CC1CCC(NC(=O)c2nn(-c3ccc(Cl)cc3)c(=O)c3ccccc23)CC1` (stereo not drawn) returned a 50% inhibitory concentration (IC50) of 1080 nM. With `O=C(Nc1ccc(Cl)cc1)c1cc(Cl)ccc1NC(=O)C1(c2ccc(Cl)cc2)CCCC1` the figure was 1100 nM. In the case of `CN(C)CCCNc1c2ccccc2nc2ccccc12` it was 1040 nM; in that of `COc1ccc(Cc2c(C)nc3nc(N)nc(N)c3c2C)cc1`, 280 nM.

`Cc1cc2c(cc1C(F)(F)F)N(C(=O)Nc1cc(OCCN(C)C)cc(C(F)(F)F)c1)CC2`: the IC50 came to 710 nM. With `CC(=NN=C(N)N)C(=O)Nc1ccc(Cl)c(Cl)c1` the figure was 170 nM. With `CCc1cc(Br)c(CNCCCNc2cc(=O)c3ccccc3[nH]2)s1` the figure was 950 nM; with `Cc1cccc2[nH]c(-c3ccc(-c4ccc(CNCC5CCCO5)cc4)s3)nc12` (stereo not drawn), 740 nM. In the case of `COc1ccc2nccc(N3C[C@H]4C[C@@H]3CN4CCNCc3ccc4c(n3)NC(=O)CS4)c2n1` it was 970 nM; in that of `Cc1cc(NC(=O)c2coc3cc(F)c(N4C[C@@H](C)N(C)[C@@H](C)C4)cc23)ccc1-n1ccnc1`, 840 nM; in that of `CC(O)C1CCCCN1C(=O)c1cccc(-c2ccc(-c3nc4ccccc4[nH]3)s2)c1` (stereo not drawn), 800 nM. `Cc1c(-c2cccc(C(C)(C)NCCCN3CCCCC3)c2)cnc(N)c1C` had a concentration for half-maximal inhibition (IC50) of 940 nM. With `COc1ccc(NC(=O)CCNc2ccnc(NCCc3ccc(F)cc3)n2)cc1` the figure was 990 nM; with `Clc1ccc2nccc(N3CCC(CN4CCC(c5c[nH]c6ccccc56)CC4)CC3)c2c1`, 30 nM; with `CCCO[C@H](C(=O)OC)[C@@H](CC1Cc2ccccc2C1)C(=O)NCCC1=CCCCC1`, 970 nM. In the case of `N#Cc1ccc(-c2ccc(C(=O)Nc3ccc4c(c3)CCN(C3CCC3)CC4)nc2)cn1` it was 1160 nM; in that of `Fc1ccc2nc(-c3cccc(-c4ccc(CNCCN5CCNCC5)cc4)c3)[nH]c2c1`, 900 nM; in that of `CC(C)NCc1cccc(-c2cccc(NC(=O)c3ccc(C#N)cc3)c2)c1`, 650 nM. In the case of `CC(=O)N(Cc1cccc(-c2cccc(CNCc3ccc4c(c3)OCO4)c2)c1)C1CCN(Cc2ccccc2)CC1` it was 840 nM; in that of `Clc1ccccc1/C=C/c1cncnc1Nc1ccc2nc(Cc3ccccc3)[nH]c2c1`, 920 nM.

The compound `CO/C(=C/C=C/c1cc2cc(Cl)c(Cl)cc2[nH]1)C(=O)NC1CC(C)(C)N(C)C(C)(C)C1` returned an IC50 of 780 nM.

For the compound `CC(C)(C)CN1C(=O)C(c2ccccc2)(c2ccccc2)N=C1N`, the IC50 came out at 520 nM. In the case of `COc1ccc2nccc(NCC3(O)CCN(CC(O)c4ccc5c(c4)NC(=O)CS5)CC3)c2n1` (stereo not drawn) it was 830 nM; in that of `COc1ccc(CCON2C(N)=NC(N)=NC2(C)C)cc1OC`, 10 nM; in that of `CC(C)(CN)c1nc(-c2ccc(Cl)c(O)c2)c(-c2ccncc2)[nH]1`, 760 nM. With `O=C(Nc1cccc(CN2CCCN(Cc3ccc4c(c3)OCO4)CC2)c1)c1ccc(Cl)c(Cl)c1` the figure was 890 nM. In the case of `NC(N)=Nc1ccc(Cc2ccc(N=C(N)N)cc2)cc1` it was 260 nM.
